Source: ChEMBL document CHEMBL4346749, “Design, synthesis and evaluation of novel, potent DNA alkylating agents and their antibody-drug conjugates (ADCs)” (Bioorg Med Chem Lett, 2019)

Experiments:
Assay type in all cases: functional, cell-based
KB = assay: Cytotoxicity against human KB cells assessed as reduction in cell viability after 5 days by WST-8 assay; conditions: 120 h
[1] = Cytotoxicity against human NCI-H2110 cells assessed as reduction in cell viability after 5 days by WST-8 assay; conditions: NCI-H2110, 120 h
NAMALVA = assay: Cytotoxicity against human NAMALWA cells assessed as reduction in cell viability after 5 days by WST-8 assay; conditions: 120 h

SMILES	IC50 (KB) [nM]	IC50 [1] [nM]	IC50 (NAMALVA) [nM]
COc1cc2c(cc1OCCCC(=O)Nc1cc(C(=O)Nc3ccc(-c4cc(C(=O)NCC(C)(C)SSC)n(C)c4)cc3)n(C)c1)N=C[C@@H]1Cc3ccccc3N1C2=O	0.01	0.1	0.03
COC(=O)CCNC(=O)c1cc2cc(NC(=O)c3cc(NC(=O)CCCOc4cc5c(cc4OC)C(=O)N4c6ccccc6C[C@H]4C=N5)cn3C)ccc2o1	0.2	0.5	0.06
COc1cc2c(cc1OCCCC(=O)Nc1cc(C(=O)Nc3ccc4sc(C(=O)NCC(C)(C)SSC)cc4c3)n(C)c1)N=C[C@@H]1Cc3ccccc3N1C2=O	0.08	0.3	0.01
COc1cc2c(cc1OCCCC(=O)Nc1cc(C(=O)Nc3ccc4sc(C(=O)NCC(C)(C)SSC)cc4c3)n(C)c1)N=C[C@@H]1Cc3ccccc3CN1C2=O	0.005	0.03	0.002
COC(=O)CCNC(=O)c1cc2cc(NC(=O)c3nc(NC(=O)CCCOc4cc5c(cc4OC)C(=O)N4c6ccccc6C[C@H]4C=N5)cn3C)ccc2s1	–	–	0.01
COC(=O)c1cc2cc(NC(=O)c3cc(NC(=O)CCCOc4cc5c(cc4OC)C(=O)N4c6ccccc6C[C@H]4C=N5)cn3C)ccc2s1	0.01	0.05	0.02
COc1cc2c(cc1OCCCC(=O)Nc1cn(C)c(C(=O)Nc3ccc(-c4cc(C(=O)NCC(C)(C)SSC)n(C)c4)cc3)n1)N=C[C@@H]1Cc3ccccc3CN1C2=O	0.006	0.01	0.001
COc1cc2c(cc1OCCCC(=O)Nc1cn(C)c(C(=O)Nc3ccc(-c4cc(C(=O)NCC(C)(C)SSC)n(C)c4)cc3)n1)N=C[C@@H]1Cc3ccccc3N1C2=O	0.04	0.06	0.01
COC(=O)CCNC(=O)c1cc2cc(NC(=O)c3cc(NC(=O)CCCOc4cc5c(cc4OC)C(=O)N4c6ccccc6C[C@H]4C=N5)cn3C)ccc2s1	0.04	0.2	0.03
COc1cc2c(cc1OCCCC(=O)Nc1cn(C)c(C(=O)Nc3ccc4sc(C(=O)NCC(C)(C)SSC)cc4c3)n1)N=C[C@@H]1Cc3ccccc3N1C2=O	–	–	0.03
COC(=O)CCNC(=O)c1cc2cc(NC(=O)c3nc(NC(=O)CCCOc4cc5c(cc4OC)C(=O)N4c6ccccc6C[C@H]4C=N5)cn3C)ccc2o1	0.08	0.5	0.06
COc1cc2c(cc1OCCCC(=O)Nc1nc(C(=O)Nc3ccc(NC(=O)CCC(C)(C)SSC)cc3)cs1)N=C[C@@H]1Cc3ccccc3N1C2=O	0.1	0.6	0.03
COc1cc2c(cc1OCCCC(=O)Nc1cn(C)c(C(=O)Nc3ccc4sccc4c3)n1)N=C[C@@H]1Cc3ccccc3N1C2=O	0.04	0.08	0.02
COc1cc2c(cc1OCCCC(=O)Nc1cn(C)c(C(=O)Nc3ccc(N)cc3)n1)N=C[C@@H]1Cc3ccccc3N1C2=O	0.2	0.4	0.06
COc1cc2c(cc1OCCCC(=O)Nc1cn(C)c(C(=O)Nc3ccc(NC(=O)CCC(C)(C)SSC)cc3)n1)N=C[C@@H]1Cc3ccccc3N1C2=O	0.03	0.4	0.03
